Results on three compounds are retold here after US20260234107A1, “TRYPTAMINES AND METHODS OF TREATING MOOD DISORDERS” (priority 2022, published 2026).

The target in one series is T1, 5-HT2B (Homo sapiens, UniProt P41595).
T1 construct: host or cells: HEK293
Briefly: FLIPR Ca2+ flux agonist assay at 5-HT2B. In kind it is cell-based. To be noted: for 5-HT2B % Act @ Max Dose: Ca2+ flux, HEK293, max dose.

The target of the next series is T2, 5-HT1A (Homo sapiens, UniProt P08908).
T2 construct: host or cells: CHO cells
T2 sequence (P08908 1-422): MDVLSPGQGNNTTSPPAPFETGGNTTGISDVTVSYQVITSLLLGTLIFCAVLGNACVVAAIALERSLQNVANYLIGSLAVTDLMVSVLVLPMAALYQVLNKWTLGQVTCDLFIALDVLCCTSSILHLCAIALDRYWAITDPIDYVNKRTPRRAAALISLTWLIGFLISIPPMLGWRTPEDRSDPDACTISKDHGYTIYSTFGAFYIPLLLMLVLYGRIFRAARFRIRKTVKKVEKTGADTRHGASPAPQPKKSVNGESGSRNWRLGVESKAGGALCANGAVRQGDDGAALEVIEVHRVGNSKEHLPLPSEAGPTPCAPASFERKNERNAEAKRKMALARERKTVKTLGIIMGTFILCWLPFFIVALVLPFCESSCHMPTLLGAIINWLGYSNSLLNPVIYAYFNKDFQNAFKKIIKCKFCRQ
Briefly: FLIPR Ca2+ flux agonist assay at 5-HT1A. In kind it is cell-based. To be noted: for 5-HT1A % Act @ Max Dose: Ca2+ flux, CHO cells.

A short description of series [1]: Stability in mouse brain homogenate. The format is in vitro ADME, male CD-1 mice. To be noted: mouse brain homogenate, 1 μM, 37° C.; for half-life at 1 µM: male, CD-1.
Series [2] can be described thus: Stability in rat brain homogenate. In kind it is in vitro ADME, male Sprague Dawley rats. To be noted: rat brain homogenate, 1 μM, 37° C.; for half-life at 1 µM: male, Sprague Dawley.
For a further series, the system named is rat synaptosomes. Briefly: Serotonin (5-HT) release from rat synaptosomes. The note with it: for EC50: rat synaptosomes preloaded with [3H]5-HT; for % Release @ Max Dose (10 μM) / 5-HT release potency/efficacy compared with analog (in words): rat synaptosomes. The format is biochemical, Male Sprague-Dawley rats. How it is done: Disclosed compounds were assessed for their ability to release serotonin (5-HT) from […] (Table 9). Potency and efficacy for 5-HT release varied substantially depending on the specific compound. […] However, there was also substantial variability among 4-hydroxy compounds.
Synaptosome 5-HT Release Assay. Synaptosome release assays were conducted according to modifications of previously described procedures (Partilla et al. (2016). Interrogating the Activity of Ligands at Monoamine Transporters in Rat Brain Synaptosomes. In Neurotransmitter Transporters (pp. 41-52). Springer.). Briefly, synaptosomes were prepared from rat brains. Male Sprague-Dawley rats were rendered unconscious with CO2 and their brains were immediately removed. The cerebella were discarded and the whole brains (minus striatum) were placed in ice-cold 0.32 M sucrose (10 mL per brain) and gently homogenized by hand. The homogenate of each brain was centrifuged at 1,000×g at 4° C. for 10 mins and the resulting supernatant was diluted with ice-cold 0.32 M sucrose to a total volume of 10 mL to provide the synaptosome solution. Synaptosomes were then preloaded with 5 nM [^3H]5-HT in the presence of selective uptake inhibitors of DAT (50 nM GBR12935), NET (100 nM nomifensine), and VMAT2 (1 μM reserpine) in Krebs phosphate buffer (KPB). The incubations were allowed to reach equilibrium for 2 h at 25° C. For the release reactions, 425 μL of preloaded synaptosomes were added to test tubes containing 75 μL of test drugs diluted in KPB containing 1 mg/mL BSA. After 10 mins, the release reaction was stopped using a cell harvester by rapid vacuum filtration over GF/B filter paper presoaked in wash buffer (10 mM Tris-HCl, pH 7.4, 150 mM NaCl) and the filters were washed with additional wash buffer. Filters were dried for 1 h at 60° C. and retained radioactivity was quantified using a MicroBeta 2 liquid scintillation counter. The amount of retained radioactivity was inversely proportional to the extent of release.

Another series has as its target 5-HT2A (Homo sapiens, UniProt P28223). Briefly: FLIPR Ca2+ flux agonist assay at 5-HT2A. In kind it is cell-based. The note with it: for 5-HT2A % Act @ Max Dose: Ca2+ flux, HEK293, max dose. Also on record: host or cells: HEK293.
Series [3] can be described thus: Metabolic stability in human liver microsomes (HLM). More on the design: microsomal CLint / half-life: dose or concentration left out as unconfirmed. The note with it: for half-life / microsomal CLint: both, human, pooled human liver microsomes, pH 7.4.
Series [4] can be described thus: Plasma pharmacokinetics in rats after intravenous administration. To be noted: for AUC(0-t) / C0 / half-life: male, Sprague Dawley, rat, plasma, iv, 1 mg/kg.

SMILES strings stand for the structures.

T1 sequence (P41595 whole entry, species assumed): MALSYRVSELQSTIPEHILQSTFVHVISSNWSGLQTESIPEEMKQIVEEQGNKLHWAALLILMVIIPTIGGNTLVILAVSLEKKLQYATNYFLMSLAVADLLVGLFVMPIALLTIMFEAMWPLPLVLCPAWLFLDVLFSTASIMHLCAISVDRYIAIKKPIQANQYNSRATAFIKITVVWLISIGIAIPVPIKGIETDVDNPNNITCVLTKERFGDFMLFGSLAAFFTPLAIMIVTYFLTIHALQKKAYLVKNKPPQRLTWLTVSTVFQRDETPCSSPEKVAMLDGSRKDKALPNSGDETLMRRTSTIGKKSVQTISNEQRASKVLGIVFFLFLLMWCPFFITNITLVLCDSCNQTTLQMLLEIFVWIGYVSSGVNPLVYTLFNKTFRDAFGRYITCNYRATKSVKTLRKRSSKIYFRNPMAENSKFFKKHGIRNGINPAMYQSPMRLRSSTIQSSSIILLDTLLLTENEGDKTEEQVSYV
Chain of 5-HT2A (P28223 whole entry): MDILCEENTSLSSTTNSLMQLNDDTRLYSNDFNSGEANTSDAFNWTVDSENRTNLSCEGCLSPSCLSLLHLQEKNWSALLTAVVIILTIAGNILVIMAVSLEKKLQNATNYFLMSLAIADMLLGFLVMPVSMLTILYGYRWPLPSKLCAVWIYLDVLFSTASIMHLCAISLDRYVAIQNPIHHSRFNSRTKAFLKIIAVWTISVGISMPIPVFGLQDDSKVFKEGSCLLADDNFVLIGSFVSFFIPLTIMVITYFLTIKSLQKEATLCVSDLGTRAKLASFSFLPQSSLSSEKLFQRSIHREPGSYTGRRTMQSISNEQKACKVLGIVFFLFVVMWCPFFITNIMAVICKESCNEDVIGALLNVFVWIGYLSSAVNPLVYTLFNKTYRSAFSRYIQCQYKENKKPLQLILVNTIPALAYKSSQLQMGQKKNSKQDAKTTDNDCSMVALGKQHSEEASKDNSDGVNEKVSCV

For `CN(C)CCc1c[nH]c2ccc(F)cc12` [Compound 5-F-DMT, reference compound], on 5-HT2B, the EC50 amounted to 9.71 nM and the “5-HT2B % Act @ Max Dose” value was determined as 17.6%. For the same compound, at 5-HT1A, the response was half-maximal at 5720 nM (EC50) and the “5-HT1A % Act @ Max Dose” value came to 72.9%. Also, in series [1], the t1/2 is recorded as 3.1 min and the “% Compound Remaining (after 120 min)” value came out at 0.0%. In series [2], the t1/2 turned out to be 2.7 min and the “% Compound Remaining (after 120 min)” value is recorded as 0.0%. In the series with rat synaptosomes, the response was half-maximal at 40.7 nM (EC50) and the “% Release @ Max Dose (10 μM)” value was found to be 81.44%. Moreover, at 5-HT2A, the EC50 is 6.94 nM and the “5-HT2A % Act @ Max Dose” value came out at 94.7%. In series [3] (HLM 0.50 mg protein/mL, NADPH, 37° C., 60 minutes), the “t1/2” value came to 4.6 min. In series [4], this compound gave an AUC(0-t) of 35.5 ng·h/mL, a C0 of 338 ng/mL and a half-life of 4.8 min. In series [4] (rats, IV 1 mg/kg), the “plasma half-life (in words)” value is reported as “very short half-lives”.
Turning to `CCNCCc1c[nH]c2ccc(F)c(O)c12` [Compound 28, 3-(2-(ethylamino)ethyl)-5-fluoro-1H-indol-4-ol], on 5-HT2B, the response was half-maximal at 38.6 nM (EC50) and the “5-HT2B % Act @ Max Dose” value stood at 19.83%. Further, on 5-HT1A, the midpoint of the response, the EC50, lay at 9210 nM and the “5-HT1A % Act @ Max Dose” value came to 60.29%. In series [1], the half-life at 1 µM amounted to 22.1 min and the “% Compound Remaining (after 120 min)” value was found to be 1.9%. In series [2], the half-life at 1 µM is 15.4 min and the “% Compound Remaining (after 120 min)” value stood at 0.4%. Besides, in the series on rat synaptosomes, the “5-HT release potency/efficacy compared with analog (in words)” value was “significantly more potent and efficacious than their non-fluorinated analogs”; the response was half-maximal at 708 nM (EC50); the “% Release @ Max Dose (10 μM)” value turned out to be 73.6%. At 5-HT2A, the EC50 came to 10.5 nM and the “5-HT2A % Act @ Max Dose” value was 92.60%. Besides, in series [3], the half-life was found to be 42.3 min and the microsomal CLint stood at 32.8 µL/min/mg. In series [4], this compound showed an AUC(0-t) of 86.7 ng·h/mL, a C0 of 249 ng/mL and a half-life of 27.6 min.
For `CC(C)NCCc1c[nH]c2ccc(F)c(O)c12` [Compound 35, 5-fluoro-3-(2-(isopropylamino)ethyl)-1H-indol-4-ol], on 5-HT2B, a half-maximal effect (EC50) was put at 95.9 nM and the “5-HT2B % Act @ Max Dose” value was 27.19%. At 5-HT1A, the EC50 turned out to be 93800 nM and the “5-HT1A % Act @ Max Dose” value is 48.74%. In series [1], the half-life at 1 µM came to 90.5 min and the “% Compound Remaining (after 120 min)” value turned out to be 40%. In series [2], the half-life at 1 µM came out at 45.6 min and the “% Compound Remaining (after 120 min)” value is given as 16.4%. In the series on rat synaptosomes, the “5-HT release potency/efficacy compared with analog (in words)” value is “significantly more potent and efficacious than their non-fluorinated analogs”; the midpoint of the response, the EC50, lay at 6940 nM; the “% Release @ Max Dose (10 μM)” value came to 53.2%. Besides, on 5-HT2A, the EC50 came to 45.7 nM and the “5-HT2A % Act @ Max Dose” value was determined as 94.57%. Also, in series [3], the half-life worked out at 45.7 min and the microsomal CLint turned out to be 30.3 µL/min/mg. In series [4], this compound gave an AUC(0-t) of 126 ng·h/mL, a C0 of 348 ng/mL and a half-life of 26.4 min.
